“Also recorded” adds a separate entry of the source.
Tests used:
[1] = target: T1, TRPC1/5 heteromers (Homo sapiens, UniProt P48995+Q9UL62); test: Whole-cell patch-clamp, agonist activation of TRPC1/5 (TRPC1 and TRPC5 co-transfected) in HEK293T cells; type: cell-based
T1 construct: wild type plasmids full-length hTRPC1 (WT) and full-length hTRPC5 (WT); expressed in transfected cells; host or cells: HEK293T
From the text: (§1) The full-length hTRPC5 or truncated mTRPC5, and the full-length hTRPC1 constructs was respectively co-transfected in a plasmid ration 1:3 (w/w) into HEK293T cells (from the ATCC). As previously described, a mCherry was inserted into TRPC5 constructs and a GFP was inserted at the C terminus of TRPC1. Therefore, Cells with red and green fluorescence were selected for whole-cell patch recordings (HEKA EPC10 amplifier, […] software (https://www.heka.com/downloads/downloads_main.html#down_patchmaster)). A 1-s ramp protocol from −100 to +100 mV was applied at a frequency of 0.2 Hz. Signals were sampled at 50 kHz and filtered at 2.9 kHz. The pipette solution contained 130 mM CsCl, 1 mM MgCl2, 5.7 mM CaCl2, 10 mM EGTA, and 10 mM Hepes (calculated free Ca^2+, 200 nM), and the pH was titrated to 7.2 using CsOH[40]. The standard bath solution contained 140 mM NaCl, 5 mM KCl, 1 mM MgCl2, 2 mM CaCl2, 10 mM Hepes, and 10 mM D-glucose, and the pH was adjusted to 7.4 with NaOH (1 M). The recording chamber (150 μL) was perfused at a rate of ~2 mL/min. All recordings were performed at room temperature.

[2] = target: T2, TRPC5 homomers (Homo sapiens, UniProt Q9UL62); test: Whole-cell patch-clamp, agonist activation of TRPC5 homomers in HEK293T cells; type: cell-based
T2 construct: full length hTRPC5 (TRPC5 wild type (WT)); expressed in transfected cells; host or cells: HEK293T
T2 sequence (Q9UL62 1-973): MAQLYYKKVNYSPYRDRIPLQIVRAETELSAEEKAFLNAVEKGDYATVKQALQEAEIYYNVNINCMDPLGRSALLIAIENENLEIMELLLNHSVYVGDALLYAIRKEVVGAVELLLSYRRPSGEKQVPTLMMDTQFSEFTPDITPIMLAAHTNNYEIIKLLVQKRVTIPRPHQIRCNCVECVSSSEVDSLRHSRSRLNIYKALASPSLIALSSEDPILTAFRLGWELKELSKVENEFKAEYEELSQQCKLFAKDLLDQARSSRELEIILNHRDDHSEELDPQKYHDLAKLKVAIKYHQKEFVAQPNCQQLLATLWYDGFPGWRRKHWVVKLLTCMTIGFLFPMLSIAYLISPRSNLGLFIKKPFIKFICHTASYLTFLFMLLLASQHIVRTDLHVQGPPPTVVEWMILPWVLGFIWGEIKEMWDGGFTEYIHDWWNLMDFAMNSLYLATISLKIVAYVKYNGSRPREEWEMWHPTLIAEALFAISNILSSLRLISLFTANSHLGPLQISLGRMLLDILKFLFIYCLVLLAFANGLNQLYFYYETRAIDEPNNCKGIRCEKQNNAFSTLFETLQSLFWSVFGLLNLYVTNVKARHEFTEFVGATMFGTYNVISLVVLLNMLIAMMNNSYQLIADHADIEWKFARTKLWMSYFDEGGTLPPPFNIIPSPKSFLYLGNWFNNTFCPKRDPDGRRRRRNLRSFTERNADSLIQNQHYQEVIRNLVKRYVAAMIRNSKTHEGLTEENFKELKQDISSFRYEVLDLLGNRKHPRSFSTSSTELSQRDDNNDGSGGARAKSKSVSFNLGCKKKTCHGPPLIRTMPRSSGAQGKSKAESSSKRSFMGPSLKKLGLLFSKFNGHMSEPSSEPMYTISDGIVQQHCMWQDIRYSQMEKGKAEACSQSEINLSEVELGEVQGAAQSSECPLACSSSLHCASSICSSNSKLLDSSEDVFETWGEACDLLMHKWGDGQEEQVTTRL

[3] = target: T3, TRPC1/5 (Homo sapiens, UniProt P48995+Q9UL62); test: Calcium flux assay (Calcium 5 kit, EA 100 nM), hTRPC1 + hTRPC5 in HEK293T cells; type: cell-based; details: calcium flux screening, 10 μM
T3 construct: Full-length, non-tagged hTRPC1 and hTRPC5 constructs are used for calcium flux assays; expressed in transfected cells; host or cells: HEK293T
T3 sequence (P48995 whole entry, one chain of several): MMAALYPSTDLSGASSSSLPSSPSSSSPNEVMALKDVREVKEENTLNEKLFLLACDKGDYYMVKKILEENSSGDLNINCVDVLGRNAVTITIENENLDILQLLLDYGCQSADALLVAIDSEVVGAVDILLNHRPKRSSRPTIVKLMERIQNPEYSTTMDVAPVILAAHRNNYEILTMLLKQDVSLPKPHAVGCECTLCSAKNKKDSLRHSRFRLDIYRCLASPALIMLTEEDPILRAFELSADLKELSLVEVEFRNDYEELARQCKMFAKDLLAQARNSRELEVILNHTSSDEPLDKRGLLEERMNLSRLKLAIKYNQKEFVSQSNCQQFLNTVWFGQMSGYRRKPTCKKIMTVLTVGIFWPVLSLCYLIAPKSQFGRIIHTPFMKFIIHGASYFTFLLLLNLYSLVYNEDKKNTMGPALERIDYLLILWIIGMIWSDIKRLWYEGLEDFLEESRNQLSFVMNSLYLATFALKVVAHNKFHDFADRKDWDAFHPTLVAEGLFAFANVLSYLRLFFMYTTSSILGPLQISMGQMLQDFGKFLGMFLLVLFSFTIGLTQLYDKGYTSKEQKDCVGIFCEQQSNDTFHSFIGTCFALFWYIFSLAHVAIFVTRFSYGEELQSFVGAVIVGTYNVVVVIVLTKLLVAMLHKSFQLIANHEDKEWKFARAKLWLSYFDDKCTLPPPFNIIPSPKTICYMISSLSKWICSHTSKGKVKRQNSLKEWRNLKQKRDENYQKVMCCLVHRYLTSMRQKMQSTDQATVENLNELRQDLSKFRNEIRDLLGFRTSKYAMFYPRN
Experimental: Full-length, non-tagged hTRPC1 and hTRPC5 constructs are used for calcium flux assays. hTRPC5 is transfected alone or co-transfected with hTRPC1 into HEK293T cells (70–80% confluency) using PEI as the transfection reagent.
The culture medium is removed, and 100 µL of loading buffer (Calcium 5 Assay Kit) is added to each well, followed by a 1-h incubation at 37 °C in 5% CO2. Five minutes before measurement, molecules are added to each well at a final concentration of 10 µM under light-sensitive conditions.

[4] = target: T4, hTRPC5 (Homo sapiens, UniProt Q9UL62); test: Calcium flux assay (Calcium 5 kit, EA 100 nM), hTRPC5 in HEK293T cells; type: cell-based; details: calcium flux screening, 10 μM
T4 construct: Full-length, non-tagged hTRPC1 and hTRPC5 constructs are used for calcium flux assays; expressed in transfected cells; host or cells: HEK293T
T4 sequence (Q9UL62 1-973): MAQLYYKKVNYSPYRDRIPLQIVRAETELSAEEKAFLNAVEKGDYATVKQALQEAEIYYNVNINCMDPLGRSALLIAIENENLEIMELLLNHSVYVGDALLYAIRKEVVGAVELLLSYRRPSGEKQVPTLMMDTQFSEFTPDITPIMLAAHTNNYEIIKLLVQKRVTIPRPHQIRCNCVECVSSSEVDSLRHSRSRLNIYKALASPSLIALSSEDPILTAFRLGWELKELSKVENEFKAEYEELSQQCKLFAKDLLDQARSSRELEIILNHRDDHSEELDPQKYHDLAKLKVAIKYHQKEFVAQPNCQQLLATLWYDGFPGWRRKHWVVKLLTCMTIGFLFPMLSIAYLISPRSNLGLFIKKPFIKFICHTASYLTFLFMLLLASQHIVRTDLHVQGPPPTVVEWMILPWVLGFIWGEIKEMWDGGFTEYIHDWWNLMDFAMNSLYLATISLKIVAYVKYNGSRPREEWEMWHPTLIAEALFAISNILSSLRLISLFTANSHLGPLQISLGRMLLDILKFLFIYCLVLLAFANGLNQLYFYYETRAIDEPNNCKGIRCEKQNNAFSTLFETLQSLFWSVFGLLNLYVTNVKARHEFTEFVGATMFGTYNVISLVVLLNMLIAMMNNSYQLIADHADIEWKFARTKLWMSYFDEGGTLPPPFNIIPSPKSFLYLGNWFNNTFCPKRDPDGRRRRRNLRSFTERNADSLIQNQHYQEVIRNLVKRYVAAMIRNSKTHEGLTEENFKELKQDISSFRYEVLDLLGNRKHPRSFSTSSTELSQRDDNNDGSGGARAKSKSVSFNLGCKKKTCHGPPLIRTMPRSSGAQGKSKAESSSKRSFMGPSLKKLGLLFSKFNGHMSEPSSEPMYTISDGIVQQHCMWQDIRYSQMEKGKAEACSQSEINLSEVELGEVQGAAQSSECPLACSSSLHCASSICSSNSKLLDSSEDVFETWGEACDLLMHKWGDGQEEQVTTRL
Experimental: Five minutes before measurement, molecules are added to each well at a final concentration of 10 µM under light-sensitive conditions.

[5] = target: T1, TRPC1/5 heteromers; test: Whole-cell patch-clamp, inhibition of EA-activated TRPC1/5 heteromers; type: cell-based; details: whole-cell patch-clamp; read-out: IC50, TRPC1/C5
From the text: as §1

[6] = target: T2, TRPC5 homomers; test: Whole-cell patch-clamp, inhibition of EA-activated TRPC5 homomers; type: cell-based; details: whole-cell patch-clamp
[7] = system: healthy C57BL/6J mice; details: mouse, in vivo
Experimental: The Open-Field test (OFT) was utilized to evaluate the autonomous behavior, exploratory tendencies, and anxiety levels of experimental animals in a new environment. Each mouse was placed at the center of the container and given a 10-min exploration period. Before the test, the animals were acclimated to the experimental setting for 60 min. […] This cleaning procedure aimed to reduce the risk of contamination and prevent any misleading experimental results due to olfactory stimuli. Anxiety levels and exploratory behavior were assessed by measuring the time spent in the central area, the number of entries into the central area, and the total distance traveled by the mice.

[8] = system: diet-induced obesity (DIO) mice; test: Diet-induced obesity (DIO) model, body weight and food intake; type: in vivo, mouse; details: 11 days once daily, HC-070 and JD03-02 10 mg/kg i.g., Semaglutide 0.123 mg/kg s.c.
Experimental: A maximum of five mice were housed per cage during the acclimatization period, and three mice per cage during the experimental period. […] The day of administration was defined as day 1 (D1) of the experiment, with a single dose/day administered for 11 consecutive days. Daily observations were made on the animals’ general condition. Body weight was measured on days 1, 3, 5, 7, 9, and 11 post-administrations. Food intake was measured on days 1, 3, 5, 7, and 9 post-administrations by calculating the difference between the amount of food provided and the amount remaining in the cage, divided by the number of animals in the cage to determine the average food intake per mouse. The cumulative food intake during the experiment was calculated by summing the food intake measurements taken on different days.

[9] = system: mCPP-induced anxiety; test: Open-field test (OFT), mCPP-induced anxiety model; details: mCPP-induced anxiety-like mice; single dose
[10] = system: CUMS-induced depressive-like behaviors; test: Forced swim test (FST) in CUMS model; type: in vivo, mouse; details: CUMS mice; 14 days once-daily oral; vs vehicle
Experimental: (§2) The stressors included food and water deprivation, foot shock, wet bedding, cage tilting, restraint, shaking, and olfactory stimulation. These seven stressors were randomly applied each week to ensure unpredictability. The stress induction was maintained continuously for 28 days. Following model establishment, the tail suspension test (TST) was performed to confirm the successful induction of depressive-like behaviors. Mice that met the criteria were randomly assigned to experimental groups. Chronic Treatment: Mice were treated daily for 14 consecutive days. The SPT was conducted on day 11, and the forced swimming test (FST) was performed on day 14.

[11] = system: CUMS-induced depressive-like behaviors; test: Sucrose preference test (SPT) in CUMS model; type: in vivo, mouse; details: CUMS mice
Experimental: as §2, with “groups.” for “groups. Chronic Treatment: Mice were treated daily for 14 consecutive days. The SPT was conducted on day 11, and the forced swimming test (FST) was performed on day 14.”
Acute Treatment: A single dose of the test compound was administered, followed by the sucrose preference test (SPT).
Chronic Treatment: Mice were treated daily for 14 consecutive days. The SPT was conducted on day 11, and the forced swimming test (FST) was performed on day 14.
Mice were acclimated to 1% sucrose solution and plain water for 2 days. On the second day, the positions of the sucrose solution and water were swapped to eliminate positional bias. […] Mice were provided with pre-weighed 1% sucrose solution and plain water. […] Sucrose preference (%) was calculated as Sucrose Preference = A/(A + B)×100.

[12] = target: the molecule itself; test: cryo-EM structure; TRPC1/5 heteromer co-expressed, purified in tandem on Strep-Tactin and anti-Flag M2 resin and Superose 6 (25 mM Hepes pH 7.5, 150 mM NaCl, 1 mM DTT, LMNG/CHS/GDN); single-particle cryo-EM, 2.84 Å overall

T1 sequence (P48995 whole entry, one chain of several): as the sequence (P48995 whole entry, one chain of several) above

Cn1c(=O)n(CCCO)c(=O)c2c1nc(Oc1ccc(Cl)c(OC(F)(F)F)c1)n2Cc1ccc(Cl)cc1 [AM237]
activation of TRPC1/5 heteromers (in words) [1]: not TRPC1/5 heteromers
activation of TRPC5 homomers (in words) [2]: activates TRPC5 homomers

Cn1c(=O)n(CCN2CCCC2)c(=O)c2c1nc(Oc1cccc(Cl)c1)n2Cc1ccc(Cl)cc1 [H01]
inhibition of TRPC1/5 heteromers (in words) [3]: moderate inhibition
inhibitory activity toward TRPC5 homomers (in words) [4]: markedly reduced inhibitory activity

CC(C)NCCn1c(=O)c2c(nc(Oc3cccc(Cl)c3)n2Cc2ccc(Cl)cc2)n(C)c1=O [H02]
inhibition of TRPC1/5 heteromers (in words) [3]: moderate inhibition
inhibitory activity toward TRPC5 homomers (in words) [4]: markedly reduced inhibitory activity

Cn1c(=O)n(CCNCc2ccccc2)c(=O)c2c1nc(Oc1cccc(Cl)c1)n2Cc1ccc(Cl)cc1 [H03]
inhibitory activity toward TRPC5 homomers (in words) [4]: restored TRPC5 homomer inhibition

CN(C)CCCCCCn1c(=O)c2c(nc(Oc3cccc(Cl)c3)n2Cc2ccc(Cl)cc2)n(C)c1=O [H10]
IC50 [5]: 2.57 nM
HillSlope, TRPC5 [6]: 0.3841
IC50 [6]: 503 nM

Cn1c(=O)n(CCCO)c(=O)c2c1nc(Oc1cccc(Cl)c1)n2Cc1ccc(Cl)cc1 [HC-070]
OFT total distance traveled [7]: increased total distance traveled
body weight [8]: significantly increased body weight
food intake [8]: elevated food intake

CN1C(=O)CN=C(c2ccccc2)c2cc(Cl)ccc21 [diazepam, reference compound]
OFT total distance traveled [9]: no significant effect

CNCCC(Oc1ccc(C(F)(F)F)cc1)c1ccccc1 (centres unmarked) [fluoxetine, reference compound]
immobility (FST), repeated dosing [10]: reduced immobility
sucrose intake (SPT), repeated dosing ([11]; 11 days once-daily oral, vs vehicle): significantly improved sucrose intake
sucrose preference (SPT), single dose ([11]; single oral dose, JD03-02 30 mg/kg): no immediate effect; also recorded: ineffective

Semaglutide [reference compound]
body weight [8]: effectively reduced both weight and appetite
food intake [8]: effectively reduced both weight and appetite

B1: C-terminal truncated (210 residues) mouse TRPC5 with triple Flag tag and MBP on its N terminus (domain or fragment, UniProt Q9QX29 1-765, looked up)
chain: MAQLYYKKVNYSPYRDRIPLQIVRAETELSAEEKAFLSAVEKGDYATVKQALQEAEIYYNVNINCMDPLGRSALLIAIENENLEIMELLLNHSVYVGDALLYAIRKEVVGAVELLLSYRKPSGEKQVPTLMMDTQFSEFTPDITPIMLAAHTNNYEIIKLLVQKRVTIPRPHQIRCNCVECVSSSEVDSLRHSRSRLNIYKALASPSLIALSSEDPILTAFRLGWELKELSKVENEFKAEYEELSQQCKLFAKDLLDQARSSRELEIILNHRDDHSEELDPQKYHDLAKLKVAIKYHQKEFVAQPNCQQLLATLWYDGFPGWRRKHWVVKLLTCMTIGFLFPMLSIAYLISPRSNLGLFIKKPFIKFICHTASYLTFLFMLLLASQHIVRTDLHVQGPPPTVVEWMILPWVLGFIWGEIKEMWDGGFTEYIHDWWNLMDFAMNSLYLATISLKIVAYVKYNGSRPREEWEMWHPTLIAEALFAISNILSSLRLISLFTANSHLGPLQISLGRMLLDILKFLFIYCLVLLAFANGLNQLYFYYETRAIDEPNNCKGIRCEKQNNAFSTLFETLQSLFWSVFGLLNLYVTNVKARHEFTEFVGATMFGTYNVISLVVLLNMLIAMMNNSYQLIADHADIEWKFARTKLWMSYFDEGGTLPPPFNIIPSPKSFLYLGNWFNNTFCPKRDPDGRRRRHNLRSFTERHADSLIQNQHYQEVIRNLVKRYVAAMIRNSKTNEGLTEENFKELKQDISSFRYEVLDLLGNRK
notes: TRPC5, mouse, lacking the 210 C-terminal residues; Three copies of this chain stand in the heterotetramer with one TRPC1 subunit; The results call the complex 'human TRPC1/5' although the TRPC5 construct is mouse; also called Cryo-TRPC5; truncated mTRPC5; not shown: triple Flag, N-terminal, kept
binding result [12]: binds
